Target: TBK1 (Homo sapiens (Human), UniProt Q9UHD2)
Assay: TBK1 low ATP kinase assay (in vitro assay 1)
Type: biochemical
Conditions: in vitro assay 1, read-out: TBK1 low ATP kinase assay IC50

Sequence of TBK1 (Q9UHD2 whole entry): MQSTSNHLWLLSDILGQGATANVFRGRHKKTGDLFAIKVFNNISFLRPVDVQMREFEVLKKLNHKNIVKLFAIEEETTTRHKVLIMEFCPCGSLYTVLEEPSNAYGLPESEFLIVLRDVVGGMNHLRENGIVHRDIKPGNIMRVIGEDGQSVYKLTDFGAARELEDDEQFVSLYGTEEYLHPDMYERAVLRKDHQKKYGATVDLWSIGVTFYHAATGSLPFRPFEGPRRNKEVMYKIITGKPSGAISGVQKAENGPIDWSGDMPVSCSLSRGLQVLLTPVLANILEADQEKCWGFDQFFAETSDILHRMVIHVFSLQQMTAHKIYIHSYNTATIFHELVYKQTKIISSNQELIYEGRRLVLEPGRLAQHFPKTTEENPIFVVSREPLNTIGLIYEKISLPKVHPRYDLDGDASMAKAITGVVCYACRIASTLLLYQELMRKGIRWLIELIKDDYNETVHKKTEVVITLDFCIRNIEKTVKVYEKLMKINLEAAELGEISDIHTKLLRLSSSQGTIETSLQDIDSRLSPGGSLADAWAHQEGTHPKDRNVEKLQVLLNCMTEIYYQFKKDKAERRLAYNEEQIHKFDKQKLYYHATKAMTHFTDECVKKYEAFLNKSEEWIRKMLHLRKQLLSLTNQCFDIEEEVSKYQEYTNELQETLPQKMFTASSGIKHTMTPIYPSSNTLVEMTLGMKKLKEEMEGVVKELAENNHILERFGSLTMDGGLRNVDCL

Structure (SMILES)	IC50 [nM]
Cc1noc(-c2ccc3nc(Nc4cc(CN5CCN(C(=O)CC6CC6)CC5)ccn4)[nH]c3c2)n1 [Example 16.01.03, 2-cyclopropyl-1-{4-[(2-{[6-(3-methyl-1,2,4-oxadiazol-5-yl)-1H-benzimidazol-2-yl]amino}pyridin-4-yl)methyl]piperazin-1-yl}ethanone]	115
CSc1ncc(-c2ccc3nc(Nc4cc(CN5CCN(C(=O)CC6CC6)CC5)ccn4)[nH]c3c2)cn1 [Example 45.05.02, 2-cyclopropyl-1-(4-{[2-({6-[2-(methylsulfanyl)pyrimidin-5-yl]-1H-benzimidazol-2-yl}amino)pyridin-4-yl]methyl}piperazin-1-yl)ethanone]	1020
CC(c1ccnc(Nc2nc3ccc(-c4cc(N5CCCC5)ncn4)cc3[nH]2)c1)N1CCN(C(=O)C2CC2(F)F)CC1 (single isomer, unassigned) [Example 117.05, ((1RS)-2,2-difluorocyclopropyl)(4-{(1R or 1S)-1-[2-({6-[6-(pyrrolidin-1-yl)pyrimidin-4-yl]-1H-benzimidazol-2-yl}amino)pyridin-4-yl]ethyl}piperazin-1-yl)methanone]	0.473
CC(C)(C)OC(=O)N1CCN(Cc2ccnc(Nc3nc4ccc(-c5cc(NCC6CC6)ncn5)cc4[nH]3)c2)CC1 [Example 142.01, tert-butyl 4-({2-[(6-{6-[(cyclopropylmethyl)amino]pyrimidin-4-yl}-1H-benzimidazol-2-yl)amino]pyridin-4-yl}methyl)piperazine-1-carboxylate]	7.5
CC(c1ccnc(Nc2nc3ccc(-c4cc(N5CC(F)(F)C5)ncn4)cc3[nH]2)c1)N1CCN(C(=O)C2CC2)CC1 (single isomer, unassigned) [Example 116.02, cyclopropyl(4-{(1R or 1S)-1-[2-({6-[6-(3,3-difluoroazetidin-1-yl)pyrimidin-4-yl]-1H-benzimidazol-2-yl}amino)pyridin-4-yl]ethyl}piperazin-1-yl)methanone]	0.76
CC(c1ccnc(Nc2nc3ccc(-c4cc(N5CCCC5)ncn4)cc3[nH]2)c1)N1CCN(C(=O)C(C)(C)O)CC1 (single isomer, unassigned) [Example 117.07, 2-hydroxy-2-methyl-1-(4-{(1R or 1S)-1-[2-({6-[6-(pyrrolidin-1-yl)pyrimidin-4-yl]-1H-benzimidazol-2-yl}amino)pyridin-4-yl]ethyl}piperazin-1-yl)propan-1-one]	2.7
CN(CC(F)(F)F)c1cc(-c2ccc3nc(Nc4cc(CN5CCN(C(=O)OC(C)(C)C)CC5)ccn4)[nH]c3c2)ncn1 [Example 146.01, tert-butyl 4-({2-[(6-{6-[methyl(2,2,2-trifluoroethyl)amino]pyrimidin-4-yl}-1H-benzimidazol-2-yl)amino]pyridin-4-yl}methyl)piperazine-1-carboxylate]	14
O=C(C1CC1)N1CCN(Cc2ccnc(Nc3nc4ccc(-c5ncnc(NC6CC6)c5F)cc4[nH]3)c2)CC1 [Example 192.03, cyclopropyl(4-{[2-({6-[6-(cyclopropylamino)-5-fluoropyrimidin-4-yl]-1H-benzimidazol-2-yl}amino)pyridin-4-yl]mnethyl}piperazin-1-yl)methanone]	8.3
O=C(CC(F)(F)F)N1CCN(Cc2ccnc(Nc3nc4ccc(-c5cc(OCC6CC6)ncn5)cc4[nH]3)c2)CC1 [Example 80.02, 1-(4-{[2-({6-[6-(cyclopropylmethoxy)pyrimidin-4-yl]-1H-benzimidazol-2-yl}amino)pyridin-4-yl]methyl}piperazin-1-yl)-3,3,3-trifluoropropan-1-one]	4.5
O=C(CC(F)(F)F)N1CCN(Cc2ccnc(Nc3nc4ccc(-c5ccsc5Cl)cc4[nH]3)c2)CC1 [Example 175.02, 1-{4-[(2-{[6-(2-chlorothiophen-3-yl)-1H-benzimidazol-2-yl]amino}pyridin-4-yl)methyl]piperazin-1-yl}-3,3,3-trifluoropropan-1-one]	353
